Data set [1] deals with T1, DBH (Homo sapiens, UniProt P09172).
T1 sequence (P09172 1-617): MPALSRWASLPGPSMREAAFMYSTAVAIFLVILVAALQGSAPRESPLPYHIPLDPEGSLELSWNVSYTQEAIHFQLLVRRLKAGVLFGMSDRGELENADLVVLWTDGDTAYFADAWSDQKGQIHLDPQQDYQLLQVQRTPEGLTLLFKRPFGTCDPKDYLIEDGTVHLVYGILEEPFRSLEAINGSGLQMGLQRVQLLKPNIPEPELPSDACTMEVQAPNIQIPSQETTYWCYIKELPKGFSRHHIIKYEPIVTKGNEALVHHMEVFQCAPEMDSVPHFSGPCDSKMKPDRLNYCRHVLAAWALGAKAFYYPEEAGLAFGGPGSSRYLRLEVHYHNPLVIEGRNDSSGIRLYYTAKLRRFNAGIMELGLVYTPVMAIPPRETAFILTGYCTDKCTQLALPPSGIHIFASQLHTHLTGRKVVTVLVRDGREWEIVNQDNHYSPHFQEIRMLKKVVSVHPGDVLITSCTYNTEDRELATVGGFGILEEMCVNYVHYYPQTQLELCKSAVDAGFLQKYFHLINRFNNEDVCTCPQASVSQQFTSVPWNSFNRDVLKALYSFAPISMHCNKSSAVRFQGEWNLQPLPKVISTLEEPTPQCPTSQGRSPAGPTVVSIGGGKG
As to the kind of experiment: in vitro DBH inhibition, conversion of tyramine to octopamine in the presence of DBH. It is filed as biochemical. As to conditions: concentration at which DBH activity was halved; octopamine assayed by absorbence at 330 nm; read-out: DBH IC₅₀. The protocol:
Listed in Table I are compounds of the invention that were tested for in vitro DBH inhibition by a standard procedure for assaying conversion of tyramine to octopamine in the presence of DBH. J.J. Pisano, et al., Biochim. Biophys. Acta, 43, 566-568 (1960). Octopamine was assayed following sodium periodate oxidation to p-hydroxybenzaldehyde by measuring spectrophotometric absorbence at 330 nm. In Table I, inhibition is given in molar concentration of compound at which DBH activity was halved (IC₅₀). Fusaric acid, by this test has an IC₅₀ of 8 x 10⁻⁷M.

The conditions of data set [2]: in vitro screen; Weiffen et al., 1967; cited from earlier work.
In data set [3] the target is T1, DBH. To be noted: Runti et al., 1980; cited from earlier work.
Data set [4] concerns spontaneously hypertensive rats. As to the kind of experiment: mean arterial blood pressure in spontaneously hypertensive rats. The data set is classed as in vivo. To be noted: 50 mg/kg intraperitoneally, vs vehicle-treated controls. On the procedure: Further, spontaneously hypertensive rats were treated with 3-(3-fluorophenylmethyl)-2-thiazolidinethione at a dose of 50 mg/kg intraperitoneally, and mean arterial blood pressure was monitored for 250 minutes using indwelling cannulae in the tail arteries. […] The maximal blood pressure reduction was approximately 20 mmHg.

For data set [5] the following is noted: Teresawa et al., 1971; cited from earlier work.

`Fc1cc(F)cc(CN2CCSC2=S)c1` [3-(3,5-Difluorophenylmethyl)-2-thiazolidinethione]: the IC50 on DBH [1] was determined as 13 ± 1 µM.

Turning to `S=C1SCCN1CCc1ccccc1` [3-phenethylthiazolidinethione, reference compound], in data set [2], the tuberculostatic activity result was “poor activity”. On to phenylpicolinic acid, for which the “inhibitory activity relative to fusaric acid” value on DBH [3] was “twice the inhibitory activity of fusaric acid”. As for `Fc1cccc(CN2CCSC2=S)c1` [3-(3-Fluorophenylmethyl)-2-thiazolidinethione], the “maximal blood pressure reduction” value in data set [4] (mean arterial blood pressure monitored for 250 minutes) is given as “approximately 20 mmHg”. For the same compound, the “time to significant blood pressure reductions following treatment” value in data set [4] was ≤ 30 min. For the same compound, the IC50 at DBH [1] turned out to be 30 ± 3 µM. As to `CCCCc1ccc(C(=O)O)nc1` [Fusaric acid], in data set [5], the toxic effects entry was “hepatotoxic”. Consider `S=C1SCCN1Cc1ccccc1` [3-Phenylmethyl-2-thiazolidinethione], for which the tuberculostatic activity result in data set [2] is given as “poor activity”. At DBH [1], the IC50 was 72 ± 13 µM.
